Reference: patent publication US20230416287A1, “Chemical Compounds” (GLAXOSMITHKLINE INTELLECTUAL PROPERTY DEVELOPMENT LIMITED, priority 2022, published 2023)
≈ marks a conversion by molar mass, not a printed value.

Tests used:
[1] = target: T1, human Nav1.8 (Homo sapiens, UniProt Q9Y5Y9); assay: Nav1.8 inhibitory activity, QPatch 48 HTX electrophysiology in HEK293-Nav1.8 cells; assay type: cell-based; parameters: expressed in transfected cells; host or cells: HEK293; details: half inactivation state voltage protocol (V1/2), HEK293 cells expressing human Nav1.8, read-out: [Nav1.8] pIC50 (converted)
T1 sequence (Q9Y5Y9 whole entry): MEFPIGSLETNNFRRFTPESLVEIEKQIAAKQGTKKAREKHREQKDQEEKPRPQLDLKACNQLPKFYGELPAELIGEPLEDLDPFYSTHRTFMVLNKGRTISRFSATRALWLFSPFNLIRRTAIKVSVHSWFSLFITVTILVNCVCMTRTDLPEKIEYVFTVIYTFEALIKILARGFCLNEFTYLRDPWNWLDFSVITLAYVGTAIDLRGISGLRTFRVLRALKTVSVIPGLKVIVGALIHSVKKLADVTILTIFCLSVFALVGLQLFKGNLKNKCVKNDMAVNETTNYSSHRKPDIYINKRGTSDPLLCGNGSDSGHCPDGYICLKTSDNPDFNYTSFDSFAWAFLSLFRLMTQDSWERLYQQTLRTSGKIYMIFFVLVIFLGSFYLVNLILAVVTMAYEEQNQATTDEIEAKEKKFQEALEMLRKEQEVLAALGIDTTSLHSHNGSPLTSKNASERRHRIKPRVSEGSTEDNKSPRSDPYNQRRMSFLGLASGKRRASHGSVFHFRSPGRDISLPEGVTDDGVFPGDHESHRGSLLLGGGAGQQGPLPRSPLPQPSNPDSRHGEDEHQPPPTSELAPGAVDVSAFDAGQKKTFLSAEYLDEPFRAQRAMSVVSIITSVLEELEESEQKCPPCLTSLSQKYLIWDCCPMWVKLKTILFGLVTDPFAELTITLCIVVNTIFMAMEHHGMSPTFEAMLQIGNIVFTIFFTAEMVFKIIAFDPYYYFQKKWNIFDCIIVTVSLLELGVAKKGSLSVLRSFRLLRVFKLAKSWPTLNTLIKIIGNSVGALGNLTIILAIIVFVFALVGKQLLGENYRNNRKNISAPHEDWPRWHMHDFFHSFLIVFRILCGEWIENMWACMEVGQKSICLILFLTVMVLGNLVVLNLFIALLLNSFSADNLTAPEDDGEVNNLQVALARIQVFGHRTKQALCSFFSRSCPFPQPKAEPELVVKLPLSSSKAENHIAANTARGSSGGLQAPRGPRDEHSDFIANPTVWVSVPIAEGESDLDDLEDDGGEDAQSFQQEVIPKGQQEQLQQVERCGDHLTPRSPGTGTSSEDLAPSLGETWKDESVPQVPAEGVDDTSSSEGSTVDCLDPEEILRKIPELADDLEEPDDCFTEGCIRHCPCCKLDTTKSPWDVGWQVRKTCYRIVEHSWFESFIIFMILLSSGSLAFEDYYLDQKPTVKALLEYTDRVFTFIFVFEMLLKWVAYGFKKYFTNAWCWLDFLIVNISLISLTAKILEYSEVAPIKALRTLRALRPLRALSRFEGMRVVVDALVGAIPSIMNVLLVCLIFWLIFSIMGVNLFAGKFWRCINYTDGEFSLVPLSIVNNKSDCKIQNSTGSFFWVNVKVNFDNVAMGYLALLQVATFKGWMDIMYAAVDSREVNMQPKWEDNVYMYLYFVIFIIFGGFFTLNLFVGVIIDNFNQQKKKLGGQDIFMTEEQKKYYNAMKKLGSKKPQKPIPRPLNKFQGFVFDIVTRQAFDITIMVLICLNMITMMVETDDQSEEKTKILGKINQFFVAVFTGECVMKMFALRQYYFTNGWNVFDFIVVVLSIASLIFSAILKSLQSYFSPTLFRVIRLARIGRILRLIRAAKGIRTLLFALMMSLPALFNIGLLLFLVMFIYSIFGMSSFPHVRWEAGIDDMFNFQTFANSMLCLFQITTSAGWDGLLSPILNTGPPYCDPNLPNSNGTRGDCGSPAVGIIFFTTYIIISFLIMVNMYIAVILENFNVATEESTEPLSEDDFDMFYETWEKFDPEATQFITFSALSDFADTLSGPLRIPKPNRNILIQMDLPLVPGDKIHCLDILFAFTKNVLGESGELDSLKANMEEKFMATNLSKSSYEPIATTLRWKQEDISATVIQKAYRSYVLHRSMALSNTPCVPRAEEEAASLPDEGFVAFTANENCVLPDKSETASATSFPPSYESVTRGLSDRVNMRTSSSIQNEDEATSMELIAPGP
Description: Biological Assay 1: Nav1.8 Inhibitory Activity Human embryonic kidney 293 cells (HEK293) expressing human Nav1.8, human Navol and human TREK1 (HEK293-Nav1.8) were grown in T150 cell culture flasks at 37° C., 5% CO2 incubator. HEK293-Nav1.8 were passaged every 2-3 days when confluency reached 80-90% in T150 cell culture flasks.
Pharmacological assessment of compounds of the invention was performed using the QPatch 48 HTX electrophysiological platform. HEK293-Nav1.8 cells were prepared on the day of use by removing culture media, washing in DPBS, adding Accutase (2 mL to cover the surface, aspirate 1 mL then 1-2 minutes at 37° C.) followed by addition of CHO-SFM II to stop the enzyme digestion and in order to obtain a suspension of 3×10^6 cell/mL.
Compounds of the invention were prepared in an extracellular solution of the following composition: NaCl (145 mM), KCl (4 mM), CaCl2) (2 mM), MgCl (2 mM), HEPES (1 mM), Glucose (10 mM), pH 7.4 with NaOH Osmolality 300 mOsM/L. An intracellular solution of the following composition was used: CsF (115 mM), CsCl (20 mm), NaCl (5 mM), EGTA (10 mM), HEPES (10 mM), Sucrose (20 mM), pH 7.2 with CsOH Osmolality 310 mOsm/L.
Utilizing the voltage-clamp mode in the QPatch 48 HTX system a half inactivation state voltage protocol (V1/2) was used to determine pharmacological activity of compounds of the invention at Nav1.8 ion channels. A V1/2 protocol was utilized with the following voltage steps: a holding voltage of −100 mV was established followed by a 20 ms voltage step to 0 mV (P1), followed by an inactivating voltage step at −46 mV for 8 seconds, followed by a step to −100 mV for 20 ms, before a 20 ms step to 0 mV (P2), then returned to the holding voltage of −100 mV. This voltage protocol was repeated at a frequency of every 15 seconds, the current magnitude was quantified at the P2 step throughout the recording. Inhibition of the measured current amplitude with compounds of the invention was analyzed by fitting a 4-6 points dose-response curve allowing determination of the fifty percent inhibition concentration (IC50). P2 currents were normalized according to measurements made at baseline (Baseline, vehicle only), after compound (Input, at each test concentration), and after positive reference compound (FullResponse, to achieve complete block), fit to the following equation: […]
To assess current run-down over the course of the experiment vehicle-only wells were utilized and the normalized current with vehicle-only (n. IVEH) was determined. To correct the compound response for run-down, the currents were corrected according to the following formula:
[formula] • Compound inhibition was fitted to the following Hill Equation to estimate the half maximal inhibition concentration (IC50)
[formula] • where Y is the normalized run-down corrected inhibition relative to the vehicle control (equivalent to n. IRD_Correct), C the test compound concentration, IC50 the concentration of test compound to inhibit the sodium current by 50%, and h the Hill coefficient.

[2] = CAD kinetic solubility; assay type: physicochemical; details: phosphate buffered saline (PBS), aqueous buffer, PBS pH 7.4, 1 hour equilibration at room temperature, from DMSO stock, HPLC-CAD
Description: Kinetic solubility was measured using Charged Aerosol Detector (CAD). The aqueous kinetic solubility at pH 7.4 was determined by measuring the concentration of solute in solution after precipitation from DMSO stock solution. The DMSO stock solution was diluted 20-fold with phosphate buffered saline (PBS) pH 7.4 and the solubility of the compound was measured after 1 hour equilibration at room temperature by HPLC-CAD.

[3] = target: T1, human Nav1.8; assay: Manual patch-clamp electrophysiology assay, HEK293 cells overexpressing human Nav1.8; assay type: cell-based; parameters: host or cells: HEK293; details: manual whole-cell patch-clamp, single-pulse resting protocol, holding voltage -120 mV, step to 0 mV, room temperature
From the text: The pharmacological activity of the Compounds of Example 4A and Example 5A (active parent compound of prodrug Example 4 and Example 5, respectively) was investigated by a patch-clamp electrophysiological method using a cellular system in which human Nav1.8 was overexpressed in HEK293 cells. Using this approach Nav1.8 can be activated by modulating the plasma membrane voltage and then channel function (Na^+ conduction) can be directly quantified. The ability of Nav1.8 inhibitors to block channel function in this system is a measurement of target binding and inhibition.
Cell preparation: HEK293 cells overexpressing human Nav1.8 (BIOCAT124824) were grown at 37° C., 5% C02 in medium (DMEM/F12 with 10% FBS, 2 mM GlutaMAX, 0.1 mM NEAA and […] G418, […] Hygromycin-B and […] Puromycin). […]
Voltage-clamp recording protocol: Compound effects were tested using single-pulse resting protocol in which cells were depolarized to 0 mV for 50 ms from a holding voltage of −120 mV. The peak current amplitudes were measured from the activated currents at 0 mV. […]
Nav1.8 current amplitudes measurement and normalization: Nav1.8 peak currents elicited by test pulse of 0 mV were measured and analysed by Clampfit 10.6 Software (Molecular Devices, USA). […]
Compound inhibition analysis: The compound inhibition effect was calculated using the following equation: […]

IC50 [1] [nM] | solubility at 1 h [2] [µg/mL] | IC50 [3] [nM] | SMILES
5.01 | 44 (≈ 101 µM) | 0.8 ± 0.2 | Cc1[nH]c(=O)ccc1N1CN(c2ccc(F)c(F)c2C)c2cc(Cl)c(F)cc2C1=O [Example 4A, 7-chloro-1-(3,4-difluoro-2-methylphenyl)-6-fluoro-3-(2-methyl-6-oxo-1,6-dihydropyridin-3-yl)-2,3-dihydroquinazolin-4(1H)-one]
5.01 | 55 (≈ 132 µM) | 2.2 | Cc1cc(F)ccc1N1CN(c2ccc(=O)[nH]c2C)C(=O)c2cc(F)c(Cl)cc21 [Example 5A, 7-chloro-6-fluoro-1-(4-fluoro-2-methylphenyl)-3-(2-methyl-6-oxo-1,6-dihydropyridin-3-yl)-2,3-dihydroquinazolin-4(1H)-one]
